According to patent US11180504B2 (ORCHID PHARMA LTD., priority 2016, dated 2021):
Values after ≈ are worked out from the molar mass of the structure shown.

Assays:
[1] = test system: carbapenem sensitive Escherichia coli; assay: MIC by broth micro-dilution (CLSI), carbapenem sensitive E. coli; assay type: cell-based; conditions: Escherichia coli, ATCC25922, ESBL −ve E. coli ATCC25922; read-out: MIC
[2] = test system: methicillin-sensitive Staphylococcus aureus; assay: MIC by broth micro-dilution (CLSI), methicillin-sensitive S. aureus; assay type: cell-based; conditions: Staphylococcus aureus, ATCC 29213 / MSSA, MSSA S. aureus ATCC29213; read-out: MIC
[3] = test system: carbapenem sensitive Pseudomonas aeruginosa; assay: MIC by broth micro-dilution (CLSI), carbapenem sensitive P. aeruginosa; assay type: cell-based; conditions: Pseudomonas aeruginosa, ATCC27853, Meropenem susceptible P. aeruginosa ATCC27853; read-out: MIC
[4] = test system: carbapenemase producing K. pneumoniae; assay: MIC by broth micro-dilution (CLSI), carbapenemase producing K. pneumoniae; assay type: cell-based, Klebsiella pneumoniae; conditions: Klebsiella pneumoniae, ATCCBAA1705, KPC-2 K. pneumoniae ATCC BAA-1705; read-out: MIC

Row | SMILES | MIC [1] [µg/mL] | MIC [2] [µg/mL] | MIC [3] [µg/mL] | MIC [4] [µg/mL]
1 | C[C@@H](NC(=O)Cn1cnnn1)[C@H]1C(=O)N2C(C(=O)O)=C(S[C@@H]3CN[C@H](CC(=O)N4CCC(N)C4)C3)[C@H](C)[C@H]12 (stereo in doubt) [Example 536, (4R,5S,6R)-6-((R)-1-(2-(1H-tetrazol-1-yl)acetamido)-ethyl)-3-((3S,5R)-5-(2-((R)-3-aminopyrrolidin-1-yl)-2-oxoethyl)pyrrolidin-3-ylthio)-4-methyl-7-oxo-1-azabicyclo[3.2.0]hept-2-ene-2-carboxylic acid] | 0.25 (≈ 0.457 µM) | 2 (≈ 3.65 µM) | 4 (≈ 7.3 µM) | 2 (≈ 3.65 µM)
2 | C[C@@H](NC(=O)C(F)F)[C@H]1C(=O)N2C(C(=O)O)=C(S[C@@H]3CN[C@H](C(=O)N4CCc5nc(N)sc5C4)C3)[C@H](C)[C@H]12 [Example 235] | 2 (≈ 3.5 µM) | 2 (≈ 3.5 µM) | > 128 | 16 (≈ 28 µM)
3 | C[C@@H](NC(=O)C(F)F)[C@H]1C(=O)N2C(C(=O)O)=C(S[C@@H]3CN[C@H](CNS(=O)(=O)N4CC[C@@H](N)C4)C3)[C@H](C)[C@H]12 [Example 236] | 2 (≈ 3.53 µM) | 2 (≈ 3.53 µM) | 128 (≈ 226 µM) | 4 (≈ 7.06 µM)
4 | C[C@@H](NC(=O)C(F)F)[C@H]1C(=O)N2C(C(=O)O)=C(S[C@@H]3CN[C@H](CNS(=O)(=O)N4CC[C@H](N)C4)C3)[C@H](C)[C@H]12 [Example 237] | 2 (≈ 3.53 µM) | 1 (≈ 1.76 µM) | 128 (≈ 226 µM) | 4 (≈ 7.06 µM)
5 | C[C@@H](NC(=O)CNC(=N)N)[C@H]1C(=O)N2C(C(=O)O)=C(S[C@@H]3CN[C@H](C(=O)N(C)C)C3)[C@H](C)[C@H]12 [Example 241] | 2 (≈ 4.15 µM) | 16 (≈ 33.2 µM) | 32 (≈ 66.4 µM) | 2 (≈ 4.15 µM)
6 | C[C@@H](NC(=O)CNC(=N)N)[C@H]1C(=O)N2C(C(=O)O)=C(S[C@@H]3CN[C@H](C(=O)N4CC[C@@H](N)C4)C3)[C@H](C)[C@H]12 [Example 242] | 2 (≈ 3.83 µM) | 16 (≈ 30.6 µM) | 8 (≈ 15.3 µM) | 2 (≈ 3.83 µM)
7 | C[C@@H](NC(=O)C(F)F)[C@H]1C(=O)N2C(C(=O)O)=C(S[C@@H]3CN[C@H](C(=O)N(C)Cc4cc(=O)c(O)cn4C)C3)[C@H](C)[C@H]12 [Example 243] | 16 (≈ 27.4 µM) | 32 (≈ 54.8 µM) | > 128 | 32 (≈ 54.8 µM)
8 | C[C@@H](NC(=O)C(F)F)[C@H]1C(=O)N2C(C(=O)O)=C(S[C@@H]3CN[C@H](CN)C3)[C@H](C)[C@H]12 [Example 244] | 1 (≈ 2.39 µM) | 1 (≈ 2.39 µM) | 64 (≈ 153 µM) | 4 (≈ 9.56 µM)
9 | C[C@@H](NC(=O)CN)[C@H]1C(=O)N2C(C(=O)O)=C(S[C@@H]3CN[C@H](C(=O)N4CC[C@@H](N)C4)C3)[C@H](C)[C@H]12 [Example 245] | 2 (≈ 4.16 µM) | 8 (≈ 16.6 µM) | 4 (≈ 8.32 µM) | 4 (≈ 8.32 µM)
10 | C[C@@H](NC(=O)C(F)F)[C@H]1C(=O)N2C(C(=O)O)=C(S[C@@H]3CN[C@H](C(=O)N4CC[C@H](NCc5cc(=O)c(O)cn5C)C4)C3)[C@H](C)[C@H]12 [Example 246] | 8 (≈ 12.5 µM) | 32 (≈ 50.1 µM) | > 128 | 128 (≈ 200 µM)
11 | C[C@@H](NC(=O)C(F)F)[C@H]1C(=O)N2C(C(=O)O)=C(S[C@@H]3CN[C@H](C(=O)N4C[C@H](NC(=N)N)[C@@H](O)C4)C3)[C@H](C)[C@H]12 [Example 247] | 4 (≈ 7.15 µM) | 32 (≈ 57.2 µM) | > 128 | 32 (≈ 57.2 µM)
12 | C[C@@H](NC(=O)C(F)F)[C@H]1C(=O)N2C(C(=O)O)=C(S[C@@H]3CN[C@@H](C(=O)N(C)C)C3)[C@H](C)[C@H]12 [Example 248] | 1 (≈ 2.17 µM) | 1 (≈ 2.17 µM) | > 128 | 4 (≈ 8.69 µM)
13 | C[C@@H](NC(=O)C(F)F)[C@H]1C(=O)N2C(C(=O)O)=C(S[C@@H]3CN[C@H](C(=O)C4C[C@@H](N)C[C@H]4CF)C3)[C@H](C)[C@H]12 (stereo partly shown) [Example 251] | 0.25 (≈ 0.469 µM) | 0.5 (≈ 0.939 µM) | 32 (≈ 60.1 µM) | 0.5 (≈ 0.939 µM)
14 | CNCC(=O)N[C@H](C)[C@H]1C(=O)N2C(C(=O)O)=C(S[C@@H]3CN[C@H](CNS(=O)(=O)N4CCNCC4)C3)[C@H](C)[C@H]12 [Example 252] | 2 (≈ 3.57 µM) | 16 (≈ 28.6 µM) | 16 (≈ 28.6 µM) | 4 (≈ 7.15 µM)
15 | CNCC(=O)N[C@H](C)[C@H]1C(=O)N2C(C(=O)O)=C(S[C@@H]3CN[C@H](CNS(=O)(=O)N4CC[C@H](N)C4)C3)[C@H](C)[C@H]12 [Example 253] | 16 (≈ 28.6 µM) | 32 (≈ 57.2 µM) | 16 (≈ 28.6 µM) | 16 (≈ 28.6 µM)
16 | CNCC(=O)N[C@H](C)[C@H]1C(=O)N2C(C(=O)O)=C(S[C@@H]3CN[C@H](CNC(=O)c4cc(=O)c(O)cn4C)C3)[C@H](C)[C@H]12 [Example 254] | 8 (≈ 14.2 µM) | 64 (≈ 114 µM) | 128 (≈ 227 µM) | 16 (≈ 28.4 µM)
17 | CNCC(=O)N[C@H](C)[C@H]1C(=O)N2C(C(=O)O)=C(S[C@@H]3CN[C@H](CNC(=O)[C@H]4CC[C@@H](N)C4)C3)[C@H](C)[C@H]12 [Example 255] | 4 (≈ 7.65 µM) | 8 (≈ 15.3 µM) | 32 (≈ 61.2 µM) | 8 (≈ 15.3 µM)

Row | SMILES | MIC [1] [µg/mL] | MIC [2] [µg/mL] | MIC [3] [µg/mL] | MIC [4] [µg/mL]
18 | CNCC(=O)N[C@H](C)[C@H]1C(=O)N2C(C(=O)O)=C(SC3CN(C4=NCCS4)C3)[C@H](C)[C@H]12 [Example 256] | 1 (≈ 2.2 µM) | 4 (≈ 8.82 µM) | 32 (≈ 70.5 µM) | 2 (≈ 4.41 µM)
19 | CNCC(=O)N[C@H](C)[C@H]1C(=O)N2C(C(=O)O)=C(SCCn3cc(O)c(=O)cc3CN)[C@H](C)[C@H]12 [Example 257] | 4 (≈ 8.34 µM) | > 128 | 128 (≈ 267 µM) | 16 (≈ 33.4 µM)
20 | C[C@@H](NC(=O)C(F)F)[C@H]1C(=O)N2C(C(=O)O)=C(S[C@@H]3CN[C@H](CNC(=O)[C@H]4CC[C@@H](N)C4)C3)[C@H](C)[C@H]12 [Example 258] | 4 (≈ 7.55 µM) | 1 (≈ 1.89 µM) | 128 (≈ 242 µM) | 16 (≈ 30.2 µM)
21 | C[C@@H](NC(=O)C(F)F)[C@H]1C(=O)N2C(C(=O)O)=C(S[C@@H]3CN[C@H](CNC(=O)[C@@H]4C[C@H](N)CN4)C3)[C@H](C)[C@H]12 [Example 259] | 4 (≈ 7.54 µM) | 2 (≈ 3.77 µM) | > 128 | 16 (≈ 30.2 µM)
22 | C[C@@H](NC(=O)C(F)F)[C@H]1C(=O)N2C(C(=O)O)=C(S[C@@H]3CN[C@H](CNC(=O)[C@@H]4CC[C@H](N)C4)C3)[C@H](C)[C@H]12 [Example 260] | 4 (≈ 7.55 µM) | 1 (≈ 1.89 µM) | 32 (≈ 60.4 µM) | 8 (≈ 15.1 µM)
23 | C[C@@H](NC(=O)C(F)F)[C@H]1C(=O)N2C(C(=O)O)=C(S[C@@H]3CN[C@H](CNC(=O)[C@@H]4C[C@@H](N)CN4)C3)[C@H](C)[C@H]12 [Example 261] | 2 (≈ 3.77 µM) | 2 (≈ 3.77 µM) | 64 (≈ 121 µM) | 16 (≈ 30.2 µM)
24 | CNCC(=O)N[C@H](C)[C@H]1C(=O)N2C(C(=O)O)=C(S[C@@H]3CN[C@H](CNC(=O)[C@@H]4CCC(N)C4)C3)[C@H](C)[C@H]12 (stereo partly shown) [Example 262] | 4 (≈ 7.65 µM) | 32 (≈ 61.2 µM) | 64 (≈ 122 µM) | 16 (≈ 30.6 µM)
25 | C[C@@H](NC(=O)C(F)F)[C@H]1C(=O)N2C(C(=O)O)=C(SC3CN(C4=NCCS4)C3)[C@H](C)[C@H]12 [Example 263] | 0.25 (≈ 0.543 µM) | 0.25 (≈ 0.543 µM) | 128 (≈ 278 µM) | 2 (≈ 4.34 µM)
26 | CNCC(=O)N[C@H](C)[C@H]1C(=O)N2C(C(=O)O)=C(S[C@@H]3CN[C@H](C(=O)N4CC[C@H](N)C[C@@H]4C)C3)[C@H](C)[C@H]12 [Example 264] | 2 (≈ 3.83 µM) | 16 (≈ 30.6 µM) | 8 (≈ 15.3 µM) | 4 (≈ 7.65 µM)
27 | CC(=O)N1C[C@@H](N)C[C@H]1CSC1=C(C(=O)O)N2C(=O)[C@H]([C@@H](C)NC(=O)C(F)F)[C@H]2[C@H]1C [Example 265] | 2 (≈ 4.34 µM) | 2 (≈ 4.34 µM) | > 128 | 8 (≈ 17.4 µM)
28 | C[C@@H](NC(=O)[C@H]1CC[C@@H](N)C1)[C@H]1C(=O)N2C(C(=O)O)=C(S[C@@H]3CN[C@H](C(=O)N(C)C)C3)[C@H](C)[C@H]12 [Example 266] | 2 (≈ 4.05 µM) | 64 (≈ 130 µM) | 128 (≈ 259 µM) | 8 (≈ 16.2 µM)
29 | C[C@@H](NC(=O)C(F)F)[C@H]1C(=O)N2C(C(=O)O)=C(SC[C@@H]3C[C@H](NS(N)(=O)=O)CN3)[C@H](C)[C@H]12 [Example 267] | 1 (≈ 2.01 µM) | 0.5 (≈ 1 µM) | > 128 | 2 (≈ 4.02 µM)
30 | C[C@@H](NC(=O)CC(N)=O)[C@H]1C(=O)N2C(C(=O)O)=C(S[C@@H]3CN[C@H](C(=O)N(C)C)C3)[C@H](C)[C@H]12 [Example 268] | 2 (≈ 4.28 µM) | 8 (≈ 17.1 µM) | 32 (≈ 68.4 µM) | 4 (≈ 8.56 µM)
31 | CNCC(=O)N[C@H](C)[C@H]1C(=O)N2C(C(=O)O)=C(SC[C@@H]3C[C@H](NS(N)(=O)=O)CN3)[C@H](C)[C@H]12 [Example 269] | 4 (≈ 8.15 µM) | 16 (≈ 32.6 µM) | 128 (≈ 261 µM) | 4 (≈ 8.15 µM)
32 | C[C@@H](NC(=O)[C@@H]1CSCN1)[C@H]1C(=O)N2C(C(=O)O)=C(S[C@@H]3CN[C@H](C(=O)N(C)C)C3)[C@H](C)[C@H]12 [Example 270] | 1 (≈ 2.01 µM) | 4 (≈ 8.04 µM) | 64 (≈ 129 µM) | 4 (≈ 8.04 µM)
33 | C[C@@H](NC(=O)[C@@H]1CSCN1)[C@H]1C(=O)N2C(C(=O)O)=C(S[C@@H]3CN[C@H](C(=O)N4CC[C@@H](N)C4)C3)[C@H](C)[C@H]12 [Example 271] | 1 (≈ 1.86 µM) | 2 (≈ 3.71 µM) | 8 (≈ 14.9 µM) | 4 (≈ 7.43 µM)
34 | CNC(=O)CC(=O)N[C@H](C)[C@H]1C(=O)N2C(C(=O)O)=C(S[C@@H]3CN[C@H](C(=O)N(C)C)C3)[C@H](C)[C@H]12 [Example 272] | 64 (≈ 133 µM) | 128 (≈ 266 µM) | > 128 | 64 (≈ 133 µM)
